Patent US20090068719A1, “IMMUNOASSAYS, HAPTENS, IMMUNOGENS AND ANTIBODIES FOR ANTI-HIV THERAPEUTICS” (priority 2003, published 2009)

Tests used:
Anti-(D2)2 [1] = assay: Homogeneous enzyme immunoassay for lopinavir, standard curve; type: binding, rabbit; settings: Enzyme Conjugate (D2)/G6PDH Reagent
Description: Enzyme Conjugate (D2)/G6PDH and Antibody Anti-(D2)2 were selected as exemplary materials for the development of a homogeneous enzyme immunoassay for the anti-HIV therapeutic lopinavir. Enzyme Conjugate (D2)/G6PDH Reagent, as described in Example 45, was used. Also antibody Anti-(D2)2 was used in this Example as part of an antibody reagent (“Anti-(D2)2 Antibody Reagent”) further comprising nicotinamide adenine dinucleotide, glucose-6-phosphate, sodium chloride, bulking agent, surfactant, and preservatives.
An immunoassay for lopinavir was conducted on the Cobas Mira Chemistry Analyzer (Roche). On the analyzer, 4 μL of sample plus 61 μL water were incubated for 300 sec with 150 μL of Anti-(D2)2 Antibody Reagent. Subsequently, 75 μL of the Enzyme Conjugate (D2)/G6PDH Reagent was added. After 25 sec incubation, enzyme activity was monitored by following the production of NADH spectrophotometrically at 340 nm for 50 sec.
A series of known concentrations of lopinavir standards (ranging from 0 to 10 μg/mL) were prepared gravimetrically in MES (2-(N-Morpholino)ethanesulfonic acid, 0.01 M, pH 5.5) formulated with EDTA, protein additive, detergent, antiform agent, and preservative. Similarly, quality control samples were prepared (1.0 and 5.0 μg/mL).
Lopinavir was dissolved in methanol to give a stock solution of 1000 μg/mL. Synthetic buffered calibrator matrix 10 mL aliquots were spiked to give lopinavir standards with concentrations shown in Table 4. A series of Anti-(D2)2 Antibody Reagents were prepared by adding antibody to antibody/substrate diluent. Each antibody/substrate reagent was assayed with Enzyme Conjugate (D2)/G6PDH Reagent. Calibration curves were generated on the Cobas Mira by assaying each level in duplicate.

[2] = human; cited from earlier work
[3] = human, in vivo; cited from earlier work
Anti-(D2)2 [4] = assay: Specificity of the lopinavir immunoassay (cross-reactivity); type: binding, rabbit; settings: crossreactant 10 μg/mL + 5 μg/mL Lopinavir in human serum
Description: An immunoassay for lopinavir was conducted on the Cobas Mira Chemistry Analyzer (Roche). […] The specificity of the immunoassay was evaluated by adding potentially crossreactant drugs to human serum and determining the increase in the apparent concentration as a result of the presence of crossreactant. […] Each sample was assayed in duplicate. Testing was performed on the Cobas Mira analyzer. The percentage concentration above 5 μg/mL of lopinavir was calculated for each crossreactant.

HIV = settings: cited from earlier work
[5] = rat, dog, and human primary hepatocytes; cited from earlier work
[6] = rats or dogs; cited from earlier work

Cc1cccc(C)c1OCC(=O)N[C@@H](Cc1ccccc1)[C@@H](O)C[C@H](Cc1ccccc1)NC(=O)[C@H](C(C)C)N1CCCNC1=O [Lopinavir, lopinavir]
Reaction Rate (Anti-(D2)2 [1]; Lopinavir 0.5 μg/mL): 311.1 mA/min | Reaction Rate (Anti-(D2)2 [1]; Lopinavir 1.0 μg/mL): 338.9 mA/min | Reaction Rate (Anti-(D2)2 [1]; Lopinavir 2.5 μg/mL): 390.7 mA/min | Reaction Rate (Anti-(D2)2 [1]; Lopinavir 5.0 μg/mL): 427.0 mA/min | Reaction Rate (Anti-(D2)2 [1]; Lopinavir 10.0 μg/mL): 457.1 mA/min | Metabolism by liver microsomes [2]: metabolized very extensively and rapidly

O=C1Nc2c(C(=O)O)ccnc2N(C2CC2)c2ncccc21 [4-carboxy-nevirapine]
Metabolite identified in urine [3]: 2.4%

Cc1ccnc2c1NC(=O)c1cccnc1N2C1CC1 [nevirapine]
Fraction of the dose excreted in urine as parent compound [3]: 2.7% | Mean plasma elimination half-life, NVP [3]: 20.0 h | Parent compound share of circulating radioactivity [3]: 75%

O=C1Nc2c(CO)ccnc2N(C2CC2)c2ncccc21 [12-hydroxynevirapine]
Metabolite identified in urine [3]: 0.6%

Cc1c(OC2OC(C(=O)O)C(O)C(O)C2O)cnc2c1NC(=O)c1cccnc1N2C1CC1 (stereo not shown) [3-hydroxynevirapine glucuronide]
Metabolite identified in urine [3]: 25.7%

CC(C)c1nc(CN(C)C(=O)N[C@H](C(=O)N[C@@H](Cc2ccccc2)C[C@H](O)[C@H](Cc2ccccc2)NC(=O)OCc2cncs2)C(C)C)cs1 [Ritonavir, ritonavir]
Percent Increase in Apparent Lopinavir Conc. above 5 μg/mL (Anti-(D2)2 [4]): 0%

COc1c(O)ccc(C(=O)N[C@@H](CSc2ccccc2)[C@H](O)CN2C[C@H]3CCCC[C@H]3C[C@H]2C(=O)NC(C)(C)C)c1C [3′-methoxy-4′-hydroxynelfinavir]
EC50 relative to nelfinavir (HIV): fivefold higher

CC(C)(C)NC(=O)[C@@H]1C[C@@H]2CCCC[C@@H]2CN1C[C@@H](O)[C@H](Cc1ccccc1)NC(=O)[C@H](CC(N)=O)NC(=O)c1ccc2ccccc2n1 [Saquinavir, saquinavir]
Percent Increase in Apparent Lopinavir Conc. above 5 μg/mL (Anti-(D2)2 [4]): 1%

CC(C)CN(C[C@@H](O)[C@H](Cc1ccccc1)NC(=O)O[C@H]1CCOC1)S(=O)(=O)c1ccc(N)cc1 [Amprenavir, amprenavir]
Percent Increase in Apparent Lopinavir Conc. above 5 μg/mL (Anti-(D2)2 [4]): 1%

Cc1c(O)cnc2c1NC(=O)c1cccnc1N2C1CC1 [3-hydroxynevirapine]
Metabolite identified in urine [3]: 1.2%

Cc1ccnc2c1NC(=O)c1cc(OC3OC(C(=O)O)C(O)C(O)C3O)cnc1N2C1CC1 (stereo not shown) [8-hydroxynevirapine glucuronide]
Metabolite identified in urine [3]: 1.3%

CC(C)(C)NC(=O)[C@@H]1CN(Cc2cccnc2)CCN1C[C@@H](O)C[C@@H](Cc1ccccc1)C(=O)N[C@H]1c2ccccc2C[C@H]1O [Indinavir, indinavir]
Percent Increase in Apparent Lopinavir Conc. above 5 μg/mL (Anti-(D2)2 [4]): 0%

O=C1Nc2c(COC3OC(C(=O)O)C(O)C(O)C3O)ccnc2N(C2CC2)c2ncccc21 (stereo not shown) [12-hydroxynevirapine glucuronide]
Metabolite identified in urine [3]: 23.7%

Cc1c(O)cccc1C(=O)N[C@@H](CSc1ccccc1)[C@H](O)CN1C[C@H]2CCCC[C@H]2C[C@H]1C(=O)NC(C)(C)C [Nelfinavir, nelfinavir]
Percent Increase in Apparent Lopinavir Conc. above 5 μg/mL (Anti-(D2)2 [4]): 1%

CCC[C@@]1(CCc2ccccc2)CC(O)=C([C@H](CC)c2cccc(NS(=O)(=O)c3ccc(C(F)(F)F)cn3)c2)C(=O)O1 [tipranavir]
Metabolic stability in hepatocyte incubations [5]: stable | Plasma metabolic profile [6]: only the parent drug

Cc1cc(OC2OC(C(=O)O)C(O)C(O)C2O)nc2c1NC(=O)c1cccnc1N2C1CC1 (stereo not shown) [2-hydroxynevirapine glucuronide]
Metabolite identified in urine [3]: 18.6%

O=C1Nc2ccc(Cl)cc2[C@@](C#CC2CC2)(C(F)(F)F)O1 [Efavirenz, efavirenz]
Percent Increase in Apparent Lopinavir Conc. above 5 μg/mL (Anti-(D2)2 [4]): 0%
